This passage reports IC50 results from patent US20260317356A1, “SMALL MOLECULE MODULATORS OF OGG1” (AZKARRA THERAPEUTICS, INC., priority 2023, published 2026).

In this assay the target is hOGG1 (Homo sapiens, UniProt O15527). The assay can be described thus: Biochemical fluorescence assay to measure enzymatic activity of hOGG1 (OGG1/APEX IC50). Also on record: Protein His-hOGG1 (12-323) was prepared; His (N); host or cells: E. coli. To be noted: 1 nM OGG1+2 nM APEX+6 nM dsDNA (8-oxo-dG substrate); pH 7.5; RT 40 min; read-out: OGG1/APEX IC50. The protocol: Biological Example 1: Biochemical Assay to Measure Enzymatic Activity of hOGG1 (OGG1/APEX IC50)
The reported fluorescence-based assay (Donley et al ACS Chem Biol 2015; 10 (10), 2334-2343) was modified to include hAPE1/APEX1 protein. The oligonucleotide substrate with 8-oxo-dG lesion at X was prepared (LGC Biosearch, Petaluma, CA):
Protein His-hOGG1 (12-323) was prepared by Chempartner Corporation via E. coliexpression and purification by Ni-NTA and S200 column to afford 95% purity by SDS-PAGE and SEC-HPLC analysis and hAPE1/APEX1 was purchased (SinoBiological). The assay was run in 384-well plates following the general procedure: (1) compound dilution; (2) addition of hOGG1/APEX1 to compound wells; (3) addition of DNA substrate to compound wells; (4) read Ex520/Em600 (TAMRA) fluorescence signal after 40 minutes; (5) calculate % inhibition/compound concentration; (6) calculate dose-response curve and IC50 value.
• (1) 20 mM of compound solution was prepared in DMSO; • (2) Compounds were diluted to 10 mM in DMSO in ECHO Source plate (Labcyte PP-0200), by mixing […] DMSO; • (3) 4× dilution of compounds, for 10 points, by mixing […] DMSO; and • (4) Dispensed 150 nL compounds to assay plate (Corning 3573) in column 3-22. Dispensed 150 nL DMSO to Min and Max control wells in column 1-2 and column 23-24.
• (1) Assay buffer was prepared (20 mM Tris pH 7.5, 100 mM KCl, 0.1% BSA, 0.01% Tween). • (2) […] buffer was added to Min control wells (Column 1-2). • (3) Enzyme was diluted to 2× with buffer (2 nM OGG1+4 nM APEX1). Dispensed […] (except Min control wells). Shake at 500 rpm at RT for 20 min. • (4) DNA substrate diluted to 2× with buffer (12 nM). Dispensed […]. Final concentration: 1 nM OGG1+2 nM APEX+6 nM dsDNA. Shake at RT for 40 min. • (5) Ex520/Em600 (TAMRA) was read.
• (1) Calculated respective mean of Max and Min control wells. • (2) Converted data to percentage inhibition.
Inhibition (%)=(Max mean−value)/(Max mean−Min mean)×100% • (3) Calculated sigmoidal curve (3-parameter) and IC50 (using GraphPad Prism software).

hOGG1, sequence (O15527 12-323): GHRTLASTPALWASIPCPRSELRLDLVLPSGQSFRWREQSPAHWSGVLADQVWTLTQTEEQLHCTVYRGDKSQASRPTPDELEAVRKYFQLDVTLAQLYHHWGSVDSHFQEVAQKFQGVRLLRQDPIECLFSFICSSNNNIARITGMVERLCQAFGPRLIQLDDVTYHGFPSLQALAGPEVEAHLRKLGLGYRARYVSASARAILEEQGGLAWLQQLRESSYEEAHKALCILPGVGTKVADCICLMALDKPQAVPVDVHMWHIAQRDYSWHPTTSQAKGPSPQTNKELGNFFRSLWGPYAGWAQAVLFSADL

`COc1cc(NC(=O)[C@H]2CC[C@@H](N3Cc4c(CN)ccc(Cl)c4C3=O)CC2)ccc1C` [Example 133, (1s,4s)-4-(4-(Aminomethyl)-7-chloro-1-oxoisoindolin-2-yl)-N-(3-methoxy-4-methylphenyl)cyclohexane-1-carboxamide]: the IC50 is more than 10 µM.
For `COc1ncc(NC(=O)[C@H]2CC[C@@H](N3Cc4c(C)cccc4C3=O)CC2)cc1C` [Example 244, (1s,4s)-N-(6-Methoxy-5-methylpyridin-3-yl)-4-(4-methyl-1-oxoisoindolin-2-yl)cyclohexanecarboxamide] the value was 0.1 to 1 µM.
Then `COc1cc(NC(=O)[C@@H]2[C@@H]3C[C@@H](N4Cc5c(Br)cccc5C4=O)C[C@@H]32)ccc1C` [Example 213, (1R,5S,6s)-3-(4-Bromo-1-oxoisoindolin-2-yl)-N-(3-methoxy-4-methylphenyl)bicyclo[3.1.0]hexane-6-carboxamide], with 1 to 10 µM.
Take `COc1cc(NC(=O)[C@]2(C)CC[C@@H](N3Cc4c(C)cccc4NC3=O)CC2)ccc1C` (single isomer, unassigned) [Example 102, (1r,4r)-N-(3-methoxy-4-methylphenyl)-1-methyl-4-(5-methyl-2-oxo-1,2-dihydroquinazolin-3(4H)-yl)cyclohexanecarboxamide]: the IC50 is 1 to 10 µM.
For `COc1cc(NC(=O)[C@H]2CC[C@@H](N3Cc4c(cccc4C(F)F)C3=O)CC2)ccc1C` [Example 172, (1s,4s)-4-(4-(Difluoromethyl)-1-oxoisoindolin-2-yl)-N-(3-methoxy-4-methylphenyl)cyclohexanecarboxamide] the value was 1 to 10 µM; for `COc1cc(NC(=O)C(C)N2CC(N3Cc4c(Br)cccc4C3=O)C2)ccc1C` (stereo not drawn) [Example 188, 2-(3-(4-Bromo-1-oxoisoindolin-2-yl)azetidin-1-yl)-N-(3-methoxy-4-methylphenyl)propanamide], more than 10 µM; for `COc1cc(NC(=O)[C@H]2CC[C@@H](N3Cc4c(C)cc(NCCN(C)C)cc4NC3=O)CC2)ccc1C` [Example 96, (1s,4s)-4-(7-(2-(dimethylamino)ethylamino)-5-methyl-2-oxo-1,2-dihydroquinazolin-3(4H)-yl)-N-(3-methoxy-4-methylphenyl)cyclohexanecarboxamide], less than 0.1 µM.
As for `Cc1cccc2c1CN([C@H]1CC[C@@H](C(=O)Nc3ccc(Cl)c(Cl)c3)CC1)C2=O` [Example 237, (1s,4s)-N-(3,4-Dichlorophenyl)-4-(4-methyl-1-oxoisoindolin-2-yl)cyclohexanecarboxamide], the IC50 is 0.1 to 1 µM.
`COCc1ccc2c(c1C)CN([C@H]1CC[C@@H](C(=O)Nc3ccc(C)c(OC)c3)CC1)C(=O)N2` [Example 48, (1s,4s)-N-(3-Methoxy-4-methylphenyl)-4-(6-(methoxymethyl)-5-methyl-2-oxo-1,2-dihydroquinazolin-3(4H)-yl)cyclohexanecarboxamide]: the IC50 was 1 to 10 µM.
For the molecule `COc1ccc(NC(=O)[C@H]2CC[C@@H](N3Cc4c(C)cccc4NC3=O)CC2)cc1C` [Example 87, (1s,4s)-N-(4-methoxy-3-methylphenyl)-4-(5-methyl-2-oxo-1,2-dihydroquinazolin-3(4H)-yl)cyclohexanecarboxamide], the IC50 is less than 0.1 µM.
Then `COc1cc(NC(=O)[C@H]2CC[C@@H](N3Cc4c(C)cc(OCCN5CCC5)cc4C3=O)CC2)ccc1C` [Example 261, (1s,4s)-4-(6-(2-(Azetidin-1-yl)ethoxy)-4-methyl-1-oxoisoindolin-2-yl)-N-(3-methoxy-4-methylphenyl)cyclohexanecarboxamide], with less than 0.1 µM; and `COc1cc(NC(=O)[C@H]2CC[C@@H](N3Cc4c(Br)cc(NCCN(C)C)cc4C3=O)CC2)ccc1C` [Example 198, (1s,4s)-4-(4-Bromo-6-(2-(dimethylamino)ethylamino)-1-oxoisoindolin-2-yl)-N-(3-methoxy-4-methylphenyl)cyclohexanecarboxamide], with less than 0.1 µM.
